# From patent publication US8987449B2, “Medicine for treating ischemic brain injury and its sequelae, and preparation method thereof” (Haimin Lei, priority 2011, dated 2015)
# Columns and labels:
# ICR white mice = test: Acute toxic experiment of mice by oral administration; format: in vivo, mouse; design: key to Animal reaction in 14 days after the administration: appearance / Animal reaction in 14 days after the administration: behavior / Animal reaction in 14 days after the administration: hair / Animal reaction in 14 days after the administration: respiration / Animal reaction in 14 days after the administration: posture / Animal reaction in 14 days after the administration: reaction: ✓ means normal; settings: for Animal reaction in 14 days after the administration: death: 10 animals; for Animal reaction in 14 days after the administration: death / Animal reaction in 14 days after the administration: appearance / Animal reaction in 14 days after the administration: behavior / Animal reaction in 14 days after the administration: hair / Animal reaction in 14 days after the administration: posture / Animal reaction in 14 days after the administration: reaction / Animal reaction in 14 days after the administration: respiration: oral 3 x 1800 mg/kg (5400 mg/kg) in one day
# Experimental: ICR white mice (half female and half male, 18-22 g, experiment animal certificate No.: SCXK (Jing) 2006-0009);
# LQC-T4 (white powder (self made); and LQC-T4 4500 mg was dissolved into 0.5% sodium carboxymethyl cellulose 100 ml and then suspended by supersonic wave. The suspension was used in situ).
# The qualified animals were quarantined and weighed before the administration. The animals were divided into groups randomly by weight. The intragastric administration tool was used for mice to carry out the intragastric administration. The mice were fasted but not water-deprived (continuously for 14 h) overnight before being administrated. The mice were administrated at 9:00 AM for the first time (1800 mg/kg) on the present administration day and observed continuously for 1 h. The mice were administrated for the second time (1800 mg/kg) at an interval of 6 h since the first administration and observed continuously for 1 h. The mice were administrated for the third time (1800 mg/kg) at an interval of 6 h since the second administration, observed continuously for 1 h and then the mice were fed.
# [1] = tested on: chicken chorioallantoic membrane (CAM); test: Effect of LQC-T on CAM angiogenesis (CAM method, vessel count); format: in vivo; settings: 20 μg/chicken embryo
# Experimental: Embryonated chicken eggs of Lohmann of German, egg weight 50-60 g (embryo experiment center of Chinese Agriculture University)
# LQC-T (1-6) (prepared by the methods of examples 2-7), wherein the purity was ≧98%, determined by high performance liquid chromatography (HPLC), meeting the requirements of the experiment. The powder was carefully sealed and preserved at 4° C.
# Aseptic gelatin sponge, which was made into a wafer having a diameter of 5 mm by a hole-puncher in advance, was used as sample carrier. The prepared LQC-T series compounds were added according to 20 μg/chicken embryo in an aseptic environment. The 0.9% physiological saline was used in a blank group. The samples were air-dried in an aseptic environment.
# A hatching egg after disinfection was put into a 37° C. incubation box with air sac upward until the seventh day of incubation. The egg embryo was disinfected using alcohol at a super clean bench, and then a small hole was drilled at the top of the egg embryo using a dental drill, and the nearby egg shell and shell membrane were removed carefully to form the opening with the size of about 1.2 cm×1.2 cm. After spotting the location for applying the sample, the air sac was broken with injection needle at the interface between air sac and the yolk and then 1-2 drops of aseptic physiological saline was injected so that the air sac membrane was separated from CAM membrane. Then the upper air sac membrane was slightly removed with a nipper to expose the lower CAM membrane.
# The medicine-containing carrier was softly put by a nipper at the locations of CAM and yolk cyst membrane with fewer vessels, the opening was then sealed with aseptic transparent tape and incubation was continued for another 72 h.
# After the incubation, the transparent tape blocking the chicken embryo air sac was removed with a nipper. The liquid of equal-volumetrically mixed methanol/acetone 1-2 ml was added and fixed at room temperature for 10 min. The CAM membrane was carefully removed and put it onto a slide. Then it was observed and a photograph was taken. The effect of the compounds on angiogenesis was evaluated by the count analytic method using the numbers of great vessels, medium vessels and small vessels arranged radially around by the carrier.
# All the data were statistically analyzed using SPSS11.0 software pack. The difference between the administration group and the blank group was given through one-way variance analysis. P<0.05 had statistical significance.
smiles,measurement,setting,value
"COc1cc(C(=O)OCc2nc(C)c(C)nc2C)ccc1OCc1nc(C)c(C)nc1C [LQC-T4, (3,5,6-trimethylpyrazine-2-yl)methyl 3-methoxy-4-((3,5,6-trimethylpyrazine-2-yl)methoxy) benzoate]",Animal reaction in 14 days after the administration: death,ICR white mice; mice ♀,0
same,Animal reaction in 14 days after the administration: appearance,ICR white mice; mice ♀,✓
same,Animal reaction in 14 days after the administration: behavior,ICR white mice; mice ♀,✓
same,Animal reaction in 14 days after the administration: hair,ICR white mice; mice ♀,✓
same,Animal reaction in 14 days after the administration: posture,ICR white mice; mice ♀,✓
same,Animal reaction in 14 days after the administration: reaction,ICR white mice; mice ♀,✓
same,Animal reaction in 14 days after the administration: respiration,ICR white mice; mice ♀,✓
same,Animal reaction in 14 days after the administration: death,ICR white mice; mice ♂,0
same,Animal reaction in 14 days after the administration: appearance,ICR white mice; mice ♂,✓
same,Animal reaction in 14 days after the administration: behavior,ICR white mice; mice ♂,✓
same,Animal reaction in 14 days after the administration: hair,ICR white mice; mice ♂,✓
same,Animal reaction in 14 days after the administration: posture,ICR white mice; mice ♂,✓
same,Animal reaction in 14 days after the administration: reaction,ICR white mice; mice ♂,✓
same,Animal reaction in 14 days after the administration: respiration,ICR white mice; mice ♂,✓
same,death in 12 h after the administration,"ICR white mice; mice, oral 3 x 1800 mg/kg",No death was observed
same,toxic reaction at the maximum dosage,"ICR white mice; mice, oral, maximum dosage of 5400 mg/kg, observed continuously for 14 days",No toxic reaction was observed
same,"small vessel angiogenesis of CAM model, Medicine group (X ± S)","[1]; 72 h incubation, number of small vessels, blank group 8.67 ± 1.03",14.4 ± 2.16
same,effect on growth of new (small) vessels compared with the blank group,[1]; result in words,significant promoting effect
